Experimental data reported in patent US8575148B2, “Spiro azepane-oxazolidinones as Kv1.3 potassium channel blockers” (Abbott Healthcare Products B.V., priority 2008, dated 2013).

Molecular target: T1, voltage gated potassium channel Kv1.3 (Homo sapiens, UniProt P22001)
T1 construct: expressed in transfected cells; host or cells: CHO cells
Experiment: In vitro inhibition of Kv1.3 potassium channels (Rb efflux, atomic absorption)
Format: cell-based
Details: CHO cells over-expressing Kv1.3, Rb efflux after depolarization, triplicate; for inhibition at 10 µM: 10^−5 M, read-out: percentage Kv1.3 inhibition at 10^−5M
Description: In vitro inhibition of Kv1.3 potassium channels: the assay was used to determine the permeability of potassium ion channels expressed in the cell membrane. […] Adherent CHO cells over-expressing the voltage gated potassium channel Kv1.3 were loaded with Rb. Depolarization of the cells leads to opening of the potassium channels and to efflux of Rb through the potassium channels. Thus, the Rb concentration in the supernatant is proportional to the potassium ion channel permeability. To identify potassium channel blockers, cells were incubated with compounds before depolarization. A reduction of Rb in the supernatant indicated the presence of a potassium ion channel blocker. The Rb concentration in the supernatant was measured using an Atomic Absorption Spectrometer.
CHO cells expressing either Kv1.3, Kv1.5 or hERG ion channels were cultured at 37° C./5% CO2. Prior to the experiment cells were seeded in 96 well plates (Corning, N.Y., USA) and cultured for 24 h. Medium was discarded and replaced by 100 μl Rb buffer (10 mM HEPES pH 7.4, 5 mM Glucose, 5 mM RbCl, 140 mM NaCl, 2 mM CaCl2, 1 mM MgSO4) per well. After 4 h incubation the cells were washed three times with low potassium buffer (10 mM HEPES pH 7.4, 5 mM Glucose, 5 mM KCl, 140 mM NaCl, 2 mM CaCl2, 1 mM MgSO4). Compounds were dissolved in 75 μl low potassium buffer and added to the cells. After 12 minutes cells were depolarized by adding […] high potassium buffer (10 mM HEPES pH 7.4, 5 mM Glucose, 145 mM KCl, 2 mM CaCl2, 1 mM MgSO4), followed by additional 15 minutes of incubation. The supernatant was transferred in a 96 well plate and the Rb concentration was measured using a ZEEnit Atomic Absorption Spectrometer (Analytik Jena, Germany). By comparing control vs. depolarized w/o compound, the ion channel inhibition was determined. Measurements were done in triplicate.

T1 sequence (P22001 whole entry): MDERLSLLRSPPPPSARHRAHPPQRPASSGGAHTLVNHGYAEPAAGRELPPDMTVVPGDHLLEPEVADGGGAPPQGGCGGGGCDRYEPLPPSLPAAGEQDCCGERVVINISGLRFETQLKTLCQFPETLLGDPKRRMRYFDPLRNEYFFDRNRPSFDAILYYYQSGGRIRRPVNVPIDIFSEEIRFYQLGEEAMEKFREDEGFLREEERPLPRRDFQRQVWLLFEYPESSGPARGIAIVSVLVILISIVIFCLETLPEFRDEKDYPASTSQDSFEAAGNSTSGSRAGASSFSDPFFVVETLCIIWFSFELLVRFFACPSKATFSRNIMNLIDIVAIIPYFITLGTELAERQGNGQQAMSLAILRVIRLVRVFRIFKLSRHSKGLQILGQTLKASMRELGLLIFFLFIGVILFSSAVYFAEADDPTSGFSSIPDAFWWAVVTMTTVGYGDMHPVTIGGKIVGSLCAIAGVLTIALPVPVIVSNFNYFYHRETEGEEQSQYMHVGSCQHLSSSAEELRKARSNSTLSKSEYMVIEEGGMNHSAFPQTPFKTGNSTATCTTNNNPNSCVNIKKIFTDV

inhibition at 10 µM | percentage Kv1.3 inhibition at 10^−5M | SMILES
100% |  | C[C@@H](c1ccccc1)N1C[C@@]2(CCCN(C(=O)c3cc(C(F)(F)F)cc(C(F)(F)F)c3)CC2)OC1=O [Compound 29, (5S)-8-[3,5-bis(trifluoromethyl)benzoyl]-3-[(1S)-1-phenylethyl]-1-oxa-3,8-diazaspiro[4.6]-undecan-2-one]
75% |  | C[C@@H](c1ccccc1)N1C[C@]2(CCCN(C(=O)c3cc(C(F)(F)F)cc(C(F)(F)F)c3)CC2)OC1=O [Compound 30, (5R)-8-[3,5-bis(trifluoromethyl)benzoyl]-3-[(1S)-1-phenylethyl]-1-oxa-3,8-diazaspiro[4.6]-undecan-2-one]
 | 64% | C[C@H](c1ccccc1)N1CC2(CCCN(C(=O)c3cc(C(F)(F)F)cc(C(F)(F)F)c3)CC2)OC1=O (stereo partly drawn) [Compound 31, 8-(3,5-trifluoromethyl-benzoyl)-3-[(R)-1-phenyl-ethyl]-1-oxa-3,8-diazaspiro[4.6]undecan-2-one]
99% |  | C[C@H](c1ccccc1)N1C[C@@]2(CCCN(C(=O)c3cc(C(F)(F)F)cc(C(F)(F)F)c3)CC2)OC1=O [Compound 32, (5S)-8-[3,5-bis(trifluoromethyl)benzoyl]-3-[(1R)-1-phenylethyl]-1-oxa-3,8-diazaspiro[4.6]-undecan-2-one]
